Assay results as given in patent US7988972B2, “Immunoreactive peptides from Epstein-Barr virus” (Ortho-Clinical Diagnostics, Inc., priority 1993, dated 2011).
Several values for one entry are separate records, joined by “and”; a condition that tells them apart may be missing. Identical values can stand only once.

Key:
[1] = system: CD4+ T-cell subpopulation; test: Proliferation assay with CD4+-enriched T-cell subpopulation; type: cell-based, human
Description: (§1) PBL enriched for T-cell subpopulations were isolated by depleting a particular population by antibody/complement-mediated cytotoxicity. CD4^+ cells were prepared by lysing CD8^+ cells with anti-CD8 antibody and rabbit complement whereas the CD8^+ T cell subpopulation was enriched by lysing CD4^+ cells with an anti-CD4 antibody and rabbit complement.
(§2) PBL were resuspended in RPMI-1640 medium containing 2 mM L-glutamine, 25 mM HEPES, and 10 μg per ml gentamicin (HEPES media) at a concentration of 20×10^6 cells per ml. T cell specific MAb, OKT4 or OKT8 (Ortho Diagnostics Inc.), was added to the cells at the optimal concentration (previously determined by titration to give maximal lysis) and incubated on ice for 30 minutes. The cells were then washed with fresh HEPES media and resuspended at 10×10^6 cells per ml in baby rabbit complement (Pel-Freez Clinical Systems) diluted with the HEPES media to the appropriate concentration (previously assayed to give maximal antibody-specific cytotoxicity). The cells were incubated for 45 minutes in a 37° C. water bath with gentle mixing every 15 minutes. After incubation, the cells were washed thoroughly with the HEPES media and an aliquot (1-2×10^6) of cells was removed and stained for flow cytometric analysis which was performed as described below. […]

[2] = system: CD8+ T-cell subpopulation; test: Proliferation assay with CD8+-enriched T-cell subpopulation; type: cell-based, human
Description: as §1, §2

[3] = system: anti-EA-R and anti-EA-D sera; test: ELISA, anti-EA-R and anti-EA-D sera against p17.1 and p50.10; type: binding, human; conditions: individual sera, donors Anti-EA-negative (VCA-negative); values >0.2 significant
Description: ELISA. The ELISA for measuring specific antibodies to p17, p50 or to the synthetic peptides was performed as previously described in detail (Luka et al., J. Immunol. Methods, 67:145-156, 1984). Aliquots of different antigen concentrations were diluted in 0.5M Na2CO3 buffer, pH 9.5, added to wells in polystyrene microtiter plates (Linbro) and the plates incubated overnight at 4° C. Following this incubation period, the plates were washed 5× with Tris-HCl, pH 7.4, containing 0.05% Tween 20, 50 mM NaCl and 100 mg per liter albumin (Sigma) and dried for 20 minutes at room temperature. The plates were screened with different anti-EA-R or EA-D antibody positive human sera and the monoclonal antibody to p17 or p50 to identify the optimal concentration of antigen to be used in the serological studies. Alkaline-phosphatase-labelled goat anti-human IgG (Sigma) or goat anti-mouse IgG (Sigma) was used as the indicator system.
For the testing of human sera for antibodies to native p17, p50 or to the synthetic peptides, sera were diluted 1:10 in ELISA buffer, added in 0.1 ml volumes to wells coated with optimal concentrations of antigen and the plates were incubated for 60 minutes at room temperature. […] The reaction was allowed to proceed for 30 minutes at 37° C. and then the plates were screened directly with a microplate reader, TITERTEK MULTISKAN MC (Flow), at 420 nm. […]

Sequence: ETFTETWNRFITHTE [p17.1, synthetic peptide from 17 Kd early antigen (EA-R) region of EBV]
- S.I. ([1]; CD4+ subpopulation from donor A, different concentrations): ≤ 5.3
- proliferation response ([1]; CD4+ subpopulation from donor B): responded
- proliferation response ([2]; CD8+ subpopulation from donor A): unresponsive
- S.I. ([2]; CD8+ subpopulation from donor B, 50 μg per ml): greater than 3
- ELISA (420 nm) OD readings [3]: 0.024 and 0.071 and 0.027
